# Laboratory results as given in US7368443B2, “2,6-disubstituted piperidines and piperazine compounds” (University of Kentucky Research Foundation, priority 1999, dated 2008).
# Like-named read-outs stand apart in the source and are kept apart here.
# Assays:
# [1] = biological target: T1, α7* nicotinic receptor (Rattus norvegicus, UniProt Q05941); assay: [3H]Methyllycaconitine ([3H]MLA) binding assay
# T1 construct: Whole rat brain (minus cortex, striatum and cerebellum) was homogenized; from tissue; host or cells: rat whole brain membranes (minus cortex, striatum and cerebellum)
# [2] = biological target: α4β2* nicotinic receptor (Rattus norvegicus, UniProt P09483+P12390); assay: High affinity [3H]nicotine binding assay; design: The pellet containing the striatal membranes was resuspended; from tissue; host or cells: rat striatal membranes
# [3] = biological target: T2, dopamine transporter (DAT) (Rattus norvegicus, UniProt P23977); assay: [3H]Dopamine uptake assay, striatal synaptosomes; format: biochemical
# T2 construct: Striata were homogenized in 20 ml of ice-cold sucrose solution; from tissue; host or cells: striatal synaptosomes
# [4] = biological target: T3, serotonin transporter (SERT) (Rattus norvegicus, UniProt P31652); assay: [3H]5-HT uptake assay, hippocampal synaptosomes; format: biochemical
# T3 construct: Rat hippocampus was homogenized in 20 mL cold 0.32 M sucrose; from tissue; host or cells: rat hippocampal synaptosomes
# [5] = tested on: methamphetamine-evoked endogenous DA release from striatal slices; assay: Methamphetamine-evoked endogenous DA overflow from superfused striatal slices; format: cell-based; details: read-out: Inhibition of Methamphetamine Evoked DA Overflow IC50 (Mean)
# [6] = biological target: α6β2* nicotinic receptor (Rattus norvegicus, UniProt P12390+P43143); assay: Nicotine-evoked [3H]DA overflow from superfused striatal slices; format: cell-based
# [7] = Table 1, rat striatal membranes, read-out: [3H]Nicotine Binding (Ki) α4β2*
# [8] = Table 1, rat whole brain membranes, read-out: [3H]MLA Binding (Ki) α7*
# [9] = Table 1, read-out: [3H]DA Uptake (Ki)
# [10] = Table 3, earlier study, read-out: Ki [3H]-Dopamine Uptake Assay
# [11] = Table 1, read-out: [3H]5-HT Uptake (Ki) SERT
# [12] = Table 3, earlier study, read-out: Ki [3H]-Nicotine Binding Assay
# [13] = read-out: inhibition of nicotine-evoked [3H]DA overflow IC50
# Sequence of α4β2* nicotinic receptor (P09483 31-630): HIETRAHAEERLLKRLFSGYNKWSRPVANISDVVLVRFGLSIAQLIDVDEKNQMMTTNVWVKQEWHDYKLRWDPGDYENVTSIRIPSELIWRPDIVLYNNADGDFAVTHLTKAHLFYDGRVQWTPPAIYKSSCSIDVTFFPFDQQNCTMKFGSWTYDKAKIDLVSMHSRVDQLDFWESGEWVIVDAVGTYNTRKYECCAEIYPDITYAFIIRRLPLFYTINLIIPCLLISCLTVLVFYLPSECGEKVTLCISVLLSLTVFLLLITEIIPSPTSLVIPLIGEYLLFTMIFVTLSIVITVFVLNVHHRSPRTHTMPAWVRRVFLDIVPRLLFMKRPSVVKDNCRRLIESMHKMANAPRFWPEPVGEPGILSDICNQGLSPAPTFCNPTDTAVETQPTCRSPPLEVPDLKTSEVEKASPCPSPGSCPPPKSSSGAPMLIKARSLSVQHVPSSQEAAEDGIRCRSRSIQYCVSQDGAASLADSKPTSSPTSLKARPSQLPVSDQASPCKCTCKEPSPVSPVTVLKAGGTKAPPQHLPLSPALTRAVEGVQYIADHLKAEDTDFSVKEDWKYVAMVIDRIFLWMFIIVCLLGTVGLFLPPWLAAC
# Sequence of α4β2* nicotinic receptor (P12390 25-500): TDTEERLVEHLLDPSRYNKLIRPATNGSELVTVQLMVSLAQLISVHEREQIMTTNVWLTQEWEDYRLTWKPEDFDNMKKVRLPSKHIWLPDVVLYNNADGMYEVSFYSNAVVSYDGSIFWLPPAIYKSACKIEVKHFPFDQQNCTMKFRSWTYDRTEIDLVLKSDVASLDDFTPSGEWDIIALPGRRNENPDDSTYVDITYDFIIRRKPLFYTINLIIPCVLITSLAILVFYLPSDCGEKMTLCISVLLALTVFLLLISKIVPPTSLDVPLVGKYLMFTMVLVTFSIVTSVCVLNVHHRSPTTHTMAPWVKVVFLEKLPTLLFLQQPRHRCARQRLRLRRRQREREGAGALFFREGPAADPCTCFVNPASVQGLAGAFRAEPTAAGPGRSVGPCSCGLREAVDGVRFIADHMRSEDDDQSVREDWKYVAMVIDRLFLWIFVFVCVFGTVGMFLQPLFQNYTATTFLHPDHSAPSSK
# Sequence of α6β2* nicotinic receptor (P43143 31-493): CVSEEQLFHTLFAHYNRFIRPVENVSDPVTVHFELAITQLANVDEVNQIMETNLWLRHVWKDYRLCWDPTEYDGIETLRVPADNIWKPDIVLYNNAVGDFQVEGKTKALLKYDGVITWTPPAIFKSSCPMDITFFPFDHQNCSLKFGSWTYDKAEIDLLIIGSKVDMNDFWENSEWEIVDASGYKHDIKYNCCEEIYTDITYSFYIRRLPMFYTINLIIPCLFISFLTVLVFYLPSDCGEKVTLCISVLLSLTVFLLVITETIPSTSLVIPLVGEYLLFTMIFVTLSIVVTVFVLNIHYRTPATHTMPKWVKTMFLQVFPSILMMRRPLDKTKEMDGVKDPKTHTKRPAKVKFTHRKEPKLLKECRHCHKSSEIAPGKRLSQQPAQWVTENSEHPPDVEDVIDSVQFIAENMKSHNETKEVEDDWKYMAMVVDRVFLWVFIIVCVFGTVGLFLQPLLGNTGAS
# Sequence of α6β2* nicotinic receptor (P12390 25-500): as the sequence (P12390 25-500) above
# T2 sequence (P23977 whole entry): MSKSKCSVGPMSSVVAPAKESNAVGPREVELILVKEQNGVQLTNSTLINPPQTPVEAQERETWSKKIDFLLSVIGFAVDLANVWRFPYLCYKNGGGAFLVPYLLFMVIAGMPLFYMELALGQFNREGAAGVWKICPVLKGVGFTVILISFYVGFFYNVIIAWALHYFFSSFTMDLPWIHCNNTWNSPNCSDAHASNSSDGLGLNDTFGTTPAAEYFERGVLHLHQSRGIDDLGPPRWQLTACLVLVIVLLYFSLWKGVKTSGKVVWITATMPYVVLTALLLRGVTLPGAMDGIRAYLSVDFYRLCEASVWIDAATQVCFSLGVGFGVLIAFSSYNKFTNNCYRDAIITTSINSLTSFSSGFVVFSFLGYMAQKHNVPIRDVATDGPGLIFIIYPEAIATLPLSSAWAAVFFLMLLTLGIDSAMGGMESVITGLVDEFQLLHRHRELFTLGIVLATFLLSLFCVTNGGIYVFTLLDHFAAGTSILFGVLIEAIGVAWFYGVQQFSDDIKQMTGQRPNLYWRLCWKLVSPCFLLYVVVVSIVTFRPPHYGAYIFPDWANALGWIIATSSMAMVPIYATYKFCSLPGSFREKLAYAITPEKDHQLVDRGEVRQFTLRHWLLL
# T1 sequence (Q05941 23-502): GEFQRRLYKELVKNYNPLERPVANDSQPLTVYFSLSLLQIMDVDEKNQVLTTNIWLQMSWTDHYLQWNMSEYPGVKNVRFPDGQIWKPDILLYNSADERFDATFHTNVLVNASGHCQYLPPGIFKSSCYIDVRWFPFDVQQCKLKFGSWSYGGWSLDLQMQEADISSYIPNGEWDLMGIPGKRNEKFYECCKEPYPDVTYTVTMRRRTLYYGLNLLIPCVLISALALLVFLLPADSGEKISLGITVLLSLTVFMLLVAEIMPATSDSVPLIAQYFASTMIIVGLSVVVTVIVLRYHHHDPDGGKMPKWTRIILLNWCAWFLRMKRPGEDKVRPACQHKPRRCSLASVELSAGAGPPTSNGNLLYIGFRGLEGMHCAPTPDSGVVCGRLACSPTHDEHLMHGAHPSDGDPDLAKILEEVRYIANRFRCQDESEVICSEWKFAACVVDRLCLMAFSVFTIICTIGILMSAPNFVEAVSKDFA
# T3 sequence (P31652 whole entry): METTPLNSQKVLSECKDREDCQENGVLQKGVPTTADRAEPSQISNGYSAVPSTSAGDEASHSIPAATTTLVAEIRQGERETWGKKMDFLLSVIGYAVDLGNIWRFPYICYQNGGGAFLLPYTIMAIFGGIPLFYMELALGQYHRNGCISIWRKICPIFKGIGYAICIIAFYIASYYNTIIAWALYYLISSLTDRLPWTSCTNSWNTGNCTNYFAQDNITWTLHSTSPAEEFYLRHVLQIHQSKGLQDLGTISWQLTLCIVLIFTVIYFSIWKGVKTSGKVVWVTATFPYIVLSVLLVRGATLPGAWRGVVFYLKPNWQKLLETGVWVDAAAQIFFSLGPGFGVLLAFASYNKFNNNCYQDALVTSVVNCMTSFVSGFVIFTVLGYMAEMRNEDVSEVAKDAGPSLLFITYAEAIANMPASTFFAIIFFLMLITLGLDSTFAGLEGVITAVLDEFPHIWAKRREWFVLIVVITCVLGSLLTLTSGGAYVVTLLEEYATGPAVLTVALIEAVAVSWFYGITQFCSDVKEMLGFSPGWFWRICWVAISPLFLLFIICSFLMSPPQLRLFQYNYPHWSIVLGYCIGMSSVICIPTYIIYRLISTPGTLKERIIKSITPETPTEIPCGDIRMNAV
Structure (SMILES),"Ki [2, 7]","Ki [1, 8]",other results
"CCCN1[C@@H](CCc2ccccc2)CCC[C@H]1CCc1ccccc1 [Compound 27, N-(n-propyl)-2,6-cis-diphenethylpiperidine]",> 100 µM,,Ki [1]: > 100 µM
"CN1[C@@H](CCc2cccc(F)c2)CCC[C@H]1CCc1cccc(F)c1 [Compound 33, N-methyl-2,6-cis-di-(m-fluorophenethyl)piperidine]",> 100 µM,> 100 µM,
"CCN1[C@@H](CCc2ccccc2)CCC[C@H]1CCc1ccccc1 [Compound 26, N-ethyl-2,6-cis-diphenethylpiperidine]",> 100 µM,,Ki [1]: > 100 µM
"CN1C(CC(=O)c2ccccc2)CCCC1CC(O)c1ccccc1 (stereo not drawn) [Compound 1, 2-[6-(β-hydroxyphenethyl)-1-methyl-2-piperidyl]-acetophenone, reference compound]",,,"Ki [3, 9]: 29.4 µM; Ki [3, 10]: 45 µM; Ki [4, 11]: 25.7 µM"
"CN1[C@H](CCc2ccccc2)CCC[C@@H]1C[C@H](O)c1ccccc1 [Compound 11, N-Methyl-2R-(2S-hydroxy-2-phenethyl)-6S-(2-phenethyl) piperidine]",32 µM,> 100 µM,
"CN1[C@@H](/C=C/c2ccccc2)CCC[C@@H]1/C=C/c1ccccc1 [Compound 16, N-methyl-2R,6R-trans-di-trans-styryl piperidine]",12.3 µM,,IC50 ([5]; Rattus norvegicus): 0.43 to 1.25 µM; IC50 ([5]; superfused rat striatal slices): 0.43 µM; melting point: 92 to 93 °C
"Fc1ccccc1CC[C@H]1CCC[C@@H](CCc2ccccc2F)N1 [Compound 30, 2,6-cis-di-(o-fluorophenethyl)piperidine]",> 100 µM,> 100 µM,
"CN1[C@@H](C[C@H](O)c2ccccc2)CCC[C@H]1/C=C/c1ccccc1 (relative stereo) [Compound 7, N-Methyl-2R-(2S-hydroxy-2-phenethyl)-6S-trans-styrylpiperidine]",> 100 µM,> 100 µM,"Ki [3, 10]: 1.3 µM; Ki [2, 12]: 4.2 µM; loss of affinity for the nicotinic receptor compared to lobeline ([2]; earlier study (Table 3)): 1000 fold"
"CN1[C@@H](C[C@@H](O)c2ccccc2)CCC[C@H]1C[C@H](O)c1ccccc1 [Compound 4, lobelanidine]",3.1 µM,3.29 µM,"Ki [3, 9]: 33.3 µM; inhibition of DAT, potency compared with lobeline ([3]; Table 1 data): equipotently; Ki [3, 10]: 54 µM; inhibition of DAT, potency compared with lobeline ([3]; earlier study (Table 3)): equipotently; Ki [4, 11]: 25.6 µM; Ki [2, 12]: 0.93 µM"
CN1[C@H](C[C@H](O)c2ccccc2)CCC[C@@H]1/C=C/c1ccccc1 [Compound 8],9.8 µM,,Ki [1]: > 100 µM
"CN1[C@@H](CCc2ccc(F)cc2)CCC[C@H]1CCc1ccc(F)cc1 [Compound 35, N-methyl-2,6-cis-di-(p-fluorophenethyl)piperidine]",> 100 µM,> 100 µM,
CN1[C@@H](CCc2ccccc2)CCC[C@H]1C[C@H](O)c1ccccc1 [Compound 12],1.21 µM,36.4 µM,
"OCc1ccc(CC[C@H]2CCC[C@@H](CCc3ccc(CO)cc3)N2)cc1 [Compound 48, 2,6-cis-di-(p-hydroxymethylphenethyl)piperidine]",> 100 µM,> 100 µM,
CN1[C@@H](CC(=O)c2ccccc2)CCC[C@H]1CC(=O)c1ccccc1 [Compound 3],37.1 µM,22.7 µM,"Ki [3, 9]: 15.8 µM; Ki [3, 10]: 25 µM; Ki [4, 11]: 3.31 µM; Ki [2, 12]: 11 µM"
"COc1ccc(CC[C@H]2CCC[C@@H](CCc3ccc(OC)cc3)N2)cc1 [Compound 40, 2,6-cis-di-(p-methoxyphenethyl)piperidine]",> 100 µM,> 100 µM,
"CN1[C@@H](CCc2ccc(Cl)cc2Cl)CCC[C@H]1CCc1ccc(Cl)cc1Cl [Compound 51, N-methyl-2,6-cis-di-(2,4-dichlorophenethyl)piperidine]",> 100 µM,> 100 µM,
"CN1[C@@H](CCc2ccccc2F)CCC[C@H]1CCc1ccccc1F [Compound 31, N-methyl-2,6-cis-di-(o-fluorophenethyl)piperidine]",> 100 µM,> 100 µM,
"CN1[C@H](CCc2ccccc2)CCC[C@H]1CCc1ccccc1 [Compound 18, N-methyl-2S,6S-trans-di-(2-phenethyl)piperidine]",,24.3 µM,"IC50 [6, 13]: 0.003 µM; Ki ([3]; [3H]DA Uptake (Ki)): 3.69 µM; Ki ([4]; [3H]5-HT Uptake (Ki) SERT): 2.92 µM; IC50 ([5]; Rattus norvegicus): > 100 µM"

Structure (SMILES),"Ki [2, 7]","Ki [1, 8]",other results
"Fc1cccc(CC[C@H]2CCC[C@@H](CCc3cccc(F)c3)N2)c1 [Compound 32, 2,6-cis-di-(m-fluorophenethyl)piperidine]",,> 100 µM,
"COc1cccc(CC[C@H]2CCC[C@@H](CCc3cccc(OC)c3)N2)c1 [Compound 38, 2,6-cis-di-(m-methoxyphenethyl)piperidine]",> 100 µM,> 100 µM,
c1cc2c(cc1CC[C@H]1CCC[C@@H](CCc3ccc4c(c3)OCO4)N1)OCO2 [Compound 28],> 100 µM,> 100 µM,
"Cc1ccc(CC[C@H]2CCC[C@@H](CCc3ccc(C)cc3)N2)cc1 [Compound 42, 2,6-cis-di-(p-methylphenethyl)piperidine]",> 100 µM,> 100 µM,
"c1ccc(CC[C@H]2CCC[C@@H](CCc3ccccc3)N2)cc1 [Compound 25, 2,6-cis-diphenethylpiperidine]",> 100 µM,,"Ki [1]: > 100 µM; IC50 ([6]; Table 1, inhibition of 10 μM S(−)-nicotine, NI: no inhibition, read-out: Inhibition of Nicotine-Evoked [3H]DA Overflow (IC50) α6β2*): 0.1 µM; IC50 [6, 13]: 0.1 to 1 µM; Ki [3, 9]: 1.03 µM; Ki [4, 11]: 2.51 µM"
"FC(F)(F)c1cccc(CC[C@H]2CCC[C@@H](CCc3cccc(C(F)(F)F)c3)N2)c1 [Compound 44, 2,6-cis-di-(m-trifluoromethylphenethyl)piperidine]",> 100 µM,> 100 µM,
"CN1[C@@H](CCc2ccccc2)CCC[C@@H]1CCc1ccccc1 [Compound 19, N-methyl-2R,6R-trans-di-(2-phenethyl)piperidine]",,,IC50 ([5]; Rattus norvegicus): > 100 µM
"CC(=O)OCc1ccc(CC[C@H]2CCC[C@@H](CCc3ccc(COC(C)=O)cc3)N2)cc1 [Compound 49, 2,6-cis-di-(p-acetoxymethylphenethyl)piperidine]",> 100 µM,> 100 µM,
"CN1[C@H](CCc2ccccc2)CCC[C@@H]1C[C@@H](O)c1ccccc1 [Compound 10, N-Methyl-2R-(2R-hydroxy-2-phenethyl)-6S-(2-phenethyl) piperidine]",> 100 µM,1.25 µM,"Ki ([3]; [3H]DA Uptake (Ki)): 6.62 µM; Ki ([4]; Table 1, data of a mixture of compound 10 and 11, read-out: [3H]5-HT Uptake (Ki) SERT): 0.01 µM; Ki ([4]; read-out: inhibition of serotonin uptake Ki): 0.01 to 0.38 µM"
"CN1[C@@H](C[C@@H](O)c2ccccc2)CCC[C@H]1/C=C/c1ccccc1 [Compound 6, N-Methyl-2R-(2R-hydroxy-2-phenethyl)-6S-trans-styrylpiperidine]",7.6 µM,,Ki [1]: 1.6 µM; Ki ([3]; read-out: [3H]DA Uptake (Ki)): 0.86 µM; Ki ([4]; [3H]5-HT Uptake (Ki) SERT): 0.04 µM; Ki ([4]; inhibition of serotonin uptake Ki): 0.01 to 0.38 µM; melting point: 104 to 105 °C
CN1[C@H](CCc2ccccc2)CCC[C@@H]1CC(O)c1ccccc1 (mixture of isomers) [Compound 60],,,"Ki ([3]; Ki [3H]-Dopamine Uptake Assay): 8.9 µM; Ki [2, 12]: 0.16 µM"
"CN1[C@@H](CCc2cccc(C(F)(F)F)c2)CCC[C@H]1CCc1cccc(C(F)(F)F)c1 [Compound 45, N-methyl-2,6-cis-di-(m-trifluoromethylphenethyl)piperidine]",> 100 µM,> 100 µM,
"COc1ccc(CC[C@H]2CCC[C@@H](CCc3ccc(OC)cc3)N2C)cc1 [Compound 41, N-methyl-2,6-cis-di-(p-methoxyphenethyl)piperidine]",> 100 µM,> 100 µM,
"Cc1ccc(CC[C@H]2CCC[C@@H](CCc3ccc(C)cc3)N2C)cc1 [Compound 43, N-methyl-2,6-cis-di-(p-methylphenethyl)piperidine]",,> 100 µM,
"Fc1ccc(CC[C@H]2CCC[C@@H](CCc3ccc(F)cc3)N2)cc1 [Compound 34, 2,6-cis-di-(p-fluorophenethyl)piperidine]",> 100 µM,> 100 µM,
"COc1ccccc1CC[C@H]1CCC[C@@H](CCc2ccccc2OC)N1 [Compound 36, 2,6-cis-di-(o-methoxyphenethyl)piperidine]",> 100 µM,> 100 µM,
"Clc1ccc(CC[C@H]2CCC[C@@H](CCc3ccc(Cl)cc3Cl)N2)c(Cl)c1 [Compound 50, 2,6-cis-di-(2,4-dichlorophenethyl)piperidine]",> 100 µM,> 100 µM,
"CN1[C@@H](CCc2ccccc2)CCC[C@H]1CCc1ccccc1 [Compound 17, N-methyl-2,6-cis-di-(2-phenethyl)piperidine]",77 µM,43.1 µM,"Ki ([3]; Ki [3H]-Dopamine Uptake Assay): 3 µM; Ki ([3]; [3H]DA Uptake (Ki)): 1.95 µM; Ki ([4]; [3H]5-HT Uptake (Ki) SERT): 1.59 µM; IC50 ([5]; Rattus norvegicus): 0.43 to 1.25 µM; IC50 ([5]; superfused rat striatal slices): 0.44 µM; Ki [2, 12]: 14.3 µM"
